# Assay results reported in PubChem BioAssay (NCI).
#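 Dose response: 5 concentrations. Exposure: 48 h. Format: 96-well plates. Endpoint: linear interpolation; highest concentration if not reached. Abbreviation: GI50, concentration required for 50% inhibition of growth. Definition used: TGI = concentration required for complete inhibition of growth.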
# Legend:
# Experiment in all cases: DTP human tumour cell line panel, 48 h
# HCT-15 colon = system: HCT-15 colon
# ACHN renal = system: ACHN renal
# IGROV1 ovarian = system: IGROV1 ovarian
# MDA-MB-435 = system: MDA-MB-435
# EKVX NSCLC = system: EKVX NSCLC
# SNB-19 CNS = system: SNB-19 CNS
# RPMI-8226 leukemia = system: RPMI-8226 leukemia
# A498 renal = system: A498 renal
# NCI/ADR-RES ovarian = system: NCI/ADR-RES ovarian
# UACC-257 melanoma = system: UACC-257 melanoma
# HS 578T breast = system: HS 578T breast
# SK-MEL-28 melanoma = system: SK-MEL-28 melanoma
# HCT-116 colon = system: HCT-116 colon
# OVCAR-4 ovarian = system: OVCAR-4 ovarian
# PC-3 prostate = system: PC-3 prostate
# MCF7 breast = system: MCF7 breast
# MDA-MB-231 breast = system: MDA-MB-231 breast
# K-562 leukemia = system: K-562 leukemia
# NCI-H226 lung = system: NCI-H226 lung
# SF-295 CNS = system: SF-295 CNS
# CAKI-1 renal = system: CAKI-1 renal
# COLO 205 colon = system: COLO 205 colon
# U251 CNS = system: U251 CNS
# HCC-2998 colon = system: HCC-2998 colon
# DU-145 prostate = system: DU-145 prostate
# OVCAR-3 ovarian = system: OVCAR-3 ovarian
# T-47D breast = system: T-47D breast
# CCRF-CEM leukemia = system: CCRF-CEM leukemia
# KM12 colon = system: KM12 colon
# BT-549 breast = system: BT-549 breast
# 786-0 renal = system: 786-0 renal
# SW-620 colon = system: SW-620 colon
# SK-MEL-5 melanoma = system: SK-MEL-5 melanoma
# HOP-62 NSCLC = system: HOP-62 NSCLC
# RXF 393 renal = system: RXF 393 renal
# OVCAR-5 ovarian = system: OVCAR-5 ovarian
# NCI-H460 lung = system: NCI-H460 lung
# SN12C renal = system: SN12C renal
# TK-10 renal = system: TK-10 renal
# SK-OV-3 ovarian = system: SK-OV-3 ovarian
# HOP-92 NSCLC = system: HOP-92 NSCLC
# LOX IMVI melanoma = system: LOX IMVI melanoma
# SK-MEL-2 melanoma = system: SK-MEL-2 melanoma
# OVCAR-8 ovarian = system: OVCAR-8 ovarian
# NCI-H23 lung = system: NCI-H23 lung
# A549 NSCLC = system: A549 NSCLC
# UACC-62 melanoma = system: UACC-62 melanoma
# NCI-H522 lung = system: NCI-H522 lung
# SF-268 CNS = system: SF-268 CNS
# HL-60(TB) leukemia = system: HL-60(TB) leukemia
# SF-539 CNS = system: SF-539 CNS
# SNB-75 CNS = system: SNB-75 CNS
# M14 melanoma = system: M14 melanoma
# MALME-3M melanoma = system: MALME-3M melanoma
# MOLT-4 leukemia = system: MOLT-4 leukemia
# UO-31 renal = system: UO-31 renal
# SR leukemia = system: SR leukemia
# HT29 colon = system: HT29 colon
smiles,measurement,setting,value
Cn1cc(-c2csc(-c3cn(C(=O)OC(C)(C)C)c4ccccc34)n2)c2cccnc21,GI50,HCT-15 colon,6.35 µM
same,TGI,HCT-15 colon,37.7 µM
same,GI50,ACHN renal,7.33 µM
same,TGI,ACHN renal,20.4 µM
same,GI50,IGROV1 ovarian,6.5 µM
same,TGI,IGROV1 ovarian,31 µM
same,GI50,MDA-MB-435,1.68 µM
same,TGI,MDA-MB-435,22.2 µM
same,GI50,EKVX NSCLC,7.12 µM
same,TGI,EKVX NSCLC,33.7 µM
same,GI50,SNB-19 CNS,10.4 µM
same,TGI,SNB-19 CNS,30.1 µM
same,GI50,RPMI-8226 leukemia,7.66 µM
same,TGI,RPMI-8226 leukemia,36.7 µM
same,GI50,A498 renal,3.86 µM
same,TGI,A498 renal,14.4 µM
same,GI50,NCI/ADR-RES ovarian,2.33 µM
same,TGI,NCI/ADR-RES ovarian,14.4 µM
same,GI50,UACC-257 melanoma,8.97 µM
same,TGI,UACC-257 melanoma,23.6 µM
same,GI50,HS 578T breast,3.93 µM
same,TGI,HS 578T breast,25.7 µM
same,GI50,SK-MEL-28 melanoma,10.2 µM
same,TGI,SK-MEL-28 melanoma,33.3 µM
same,GI50,HCT-116 colon,4.7 µM
same,TGI,HCT-116 colon,17.8 µM
same,GI50,OVCAR-4 ovarian,6.73 µM
same,TGI,OVCAR-4 ovarian,47 µM
same,GI50,PC-3 prostate,4.89 µM
same,TGI,PC-3 prostate,24.4 µM
same,GI50,MCF7 breast,2.85 µM
same,TGI,MCF7 breast,16.3 µM
same,GI50,MDA-MB-231 breast,5.3 µM
same,TGI,MDA-MB-231 breast,20 µM
same,GI50,K-562 leukemia,2.02 µM
same,TGI,K-562 leukemia,> 100 µM
same,GI50,NCI-H226 lung,3.07 µM
same,TGI,NCI-H226 lung,20.6 µM
same,GI50,SF-295 CNS,3.42 µM
same,TGI,SF-295 CNS,14.5 µM
same,GI50,CAKI-1 renal,3.06 µM
same,TGI,CAKI-1 renal,24.8 µM
same,GI50,COLO 205 colon,2.97 µM
same,TGI,COLO 205 colon,14.6 µM
same,GI50,U251 CNS,4.23 µM
same,TGI,U251 CNS,16.3 µM
same,GI50,HCC-2998 colon,10.2 µM
same,TGI,HCC-2998 colon,25.3 µM
same,GI50,DU-145 prostate,5.17 µM
same,TGI,DU-145 prostate,21.6 µM
same,GI50,OVCAR-3 ovarian,2.26 µM
same,TGI,OVCAR-3 ovarian,5.61 µM
same,GI50,T-47D breast,3.71 µM
same,TGI,T-47D breast,15.6 µM
same,GI50,CCRF-CEM leukemia,3.89 µM
same,TGI,CCRF-CEM leukemia,67.6 µM
same,GI50,KM12 colon,2.78 µM
same,TGI,KM12 colon,9.57 µM
same,GI50,BT-549 breast,6.87 µM
same,TGI,BT-549 breast,21.2 µM
same,GI50,786-0 renal,4.92 µM
same,TGI,786-0 renal,16.4 µM
same,GI50,SW-620 colon,4.53 µM
same,TGI,SW-620 colon,21.6 µM
same,GI50,SK-MEL-5 melanoma,2.56 µM
same,TGI,SK-MEL-5 melanoma,13.2 µM
same,GI50,HOP-62 NSCLC,12.1 µM
same,TGI,HOP-62 NSCLC,30.4 µM
same,GI50,RXF 393 renal,2.26 µM
same,TGI,RXF 393 renal,9.29 µM
same,GI50,OVCAR-5 ovarian,14.6 µM
same,TGI,OVCAR-5 ovarian,29.9 µM
same,GI50,NCI-H460 lung,3.92 µM
same,TGI,NCI-H460 lung,17.7 µM
same,GI50,SN12C renal,6.45 µM
same,TGI,SN12C renal,21.6 µM
same,GI50,TK-10 renal,15.9 µM
same,TGI,TK-10 renal,42.2 µM
same,GI50,SK-OV-3 ovarian,10.1 µM
same,TGI,SK-OV-3 ovarian,48.2 µM
same,GI50,HOP-92 NSCLC,3.81 µM
same,TGI,HOP-92 NSCLC,19.9 µM
same,GI50,LOX IMVI melanoma,3.53 µM
same,TGI,LOX IMVI melanoma,18.6 µM
same,GI50,SK-MEL-2 melanoma,13.8 µM
same,TGI,SK-MEL-2 melanoma,36.3 µM
same,GI50,OVCAR-8 ovarian,6.03 µM
same,TGI,OVCAR-8 ovarian,33.9 µM
same,GI50,NCI-H23 lung,11.2 µM
same,TGI,NCI-H23 lung,30.9 µM
same,GI50,A549 NSCLC,6.04 µM
same,TGI,A549 NSCLC,31.2 µM
same,GI50,UACC-62 melanoma,7.8 µM
same,TGI,UACC-62 melanoma,22.4 µM
same,GI50,NCI-H522 lung,3.84 µM
same,TGI,NCI-H522 lung,25.4 µM
same,GI50,SF-268 CNS,8.01 µM
same,TGI,SF-268 CNS,35.3 µM
same,GI50,HL-60(TB) leukemia,2.61 µM
same,TGI,HL-60(TB) leukemia,21.9 µM
same,GI50,SF-539 CNS,3.51 µM
same,TGI,SF-539 CNS,17.4 µM
same,GI50,SNB-75 CNS,1.7 µM
same,TGI,SNB-75 CNS,8.63 µM
same,GI50,M14 melanoma,7.36 µM
same,TGI,M14 melanoma,22.7 µM
same,GI50,MALME-3M melanoma,14.6 µM
same,TGI,MALME-3M melanoma,40.8 µM
same,GI50,MOLT-4 leukemia,8.88 µM
same,TGI,MOLT-4 leukemia,46.8 µM
same,GI50,UO-31 renal,3.46 µM
same,TGI,UO-31 renal,21.3 µM
CCCCCCCCCCCCCCCCCCNc1nc(=O)n(C2CC(OP(=O)(O)OCC3OC(n4cc(F)c(=O)[nH]c4=O)CC3O)C(CO)O2)cc1F (configuration not stated),TGI,HCT-15 colon,> 100 µM
same,TGI,ACHN renal,> 100 µM
same,TGI,IGROV1 ovarian,> 100 µM
same,TGI,MDA-MB-435,> 100 µM
same,TGI,EKVX NSCLC,> 100 µM
same,TGI,SNB-19 CNS,30.3 µM
same,TGI,RPMI-8226 leukemia,49.7 µM
same,TGI,A498 renal,> 100 µM
same,TGI,NCI/ADR-RES ovarian,> 100 µM
same,TGI,SR leukemia,35.1 µM
same,TGI,UACC-257 melanoma,> 100 µM
same,TGI,HS 578T breast,> 100 µM
same,TGI,SK-MEL-28 melanoma,> 100 µM
same,TGI,HCT-116 colon,> 100 µM
same,TGI,OVCAR-4 ovarian,> 100 µM
same,TGI,PC-3 prostate,> 100 µM
same,TGI,MCF7 breast,> 100 µM
same,TGI,MDA-MB-231 breast,> 100 µM
same,TGI,HT29 colon,48.4 µM
same,TGI,K-562 leukemia,> 100 µM
same,TGI,NCI-H226 lung,> 100 µM
same,TGI,SF-295 CNS,38.5 µM
same,TGI,CAKI-1 renal,> 100 µM
same,TGI,COLO 205 colon,> 100 µM
same,TGI,U251 CNS,65.2 µM
same,TGI,HCC-2998 colon,52.9 µM
same,TGI,DU-145 prostate,> 100 µM
same,TGI,OVCAR-3 ovarian,> 100 µM
same,TGI,T-47D breast,> 100 µM
same,TGI,CCRF-CEM leukemia,42.7 µM
same,TGI,KM12 colon,27.8 µM
same,TGI,786-0 renal,> 100 µM
same,TGI,SW-620 colon,> 100 µM
same,TGI,SK-MEL-5 melanoma,> 100 µM
same,TGI,HOP-62 NSCLC,> 100 µM
same,TGI,RXF 393 renal,63 µM
same,TGI,OVCAR-5 ovarian,> 100 µM
same,TGI,SN12C renal,> 100 µM
same,TGI,TK-10 renal,> 100 µM
same,TGI,SK-OV-3 ovarian,> 100 µM
same,TGI,HOP-92 NSCLC,> 100 µM
same,TGI,LOX IMVI melanoma,> 100 µM
same,TGI,SK-MEL-2 melanoma,71 µM
same,TGI,OVCAR-8 ovarian,73.3 µM
same,TGI,NCI-H23 lung,> 100 µM
same,TGI,A549 NSCLC,> 100 µM
same,TGI,UACC-62 melanoma,51.1 µM
same,TGI,NCI-H522 lung,> 100 µM
same,TGI,SF-268 CNS,37.1 µM
same,TGI,HL-60(TB) leukemia,20.3 µM
same,TGI,SF-539 CNS,43.9 µM
same,TGI,SNB-75 CNS,> 100 µM
same,TGI,M14 melanoma,43.3 µM
same,TGI,MOLT-4 leukemia,41.9 µM
same,TGI,UO-31 renal,44.2 µM
